From patent US9127136B1, “Purification of monomer from recycle polyesters” (SABIC Global Technologies B.V, priority 2014, dated 2015)
In brackets after ≈: the same amount, converted by molar mass.

Assay: Solubility of BHET in different solvents (shaken 2 hours, analyzed by HPLC)
Format: physicochemical
Method: Solubility of BHET in Different Solvents
10 ml of the designated solvent was added to a scintillation vial with 2 g of BHET. The vial was placed in a shaker, shaken for 2 hours and the contents were analyzed by HPLC.

O=C(OCCO)c1ccc(C(=O)OCCO)cc1 [BHET, bis(2-hydroxyethyl) terephthalate]
solubility of BHET in 45% THF/Hexanes (estimated) (solvent: 45% THF/Hexanes, estimated from 12.6% solubility in THF): 5.67%
% Solubility (w/v) (solvent: Acetone): 9.09 % (w/v)
% Solubility (w/v) (solvent: Acetonitrile): 4.98 % (w/v)
% Solubility (w/v) (solvent: DMF): 60 % (w/v)
% Solubility (w/v) (solvent: Dichloromethane): 1.12 % (w/v)
% Solubility (w/v) (solvent: Ethanol): 8.61 % (w/v)
% Solubility (w/v) (solvent: Methanol): 13.75 % (w/v)
% Solubility (w/v) (solvent: THF): 12.6 % (w/v)
% Solubility (w/v) (solvent: ethylene glycol): 2.81 % (w/v)
% Solubility (w/v) (solvent: hexanes): _~0 % (w/v)
% Solubility (w/v) (solvent: iso-propanol): 6.16 % (w/v)
solubility thermodynamic at 2 h (thermodynamic from solid, solvent: water): 5000 µg/mL (≈ 19.7 mM)
